The text below walks through data of patent US20260015328A1, “ATM KINASE INHIBITORS” (Eberhard Karls Universität Tübingen, priority 2023, published 2026).

Sequence of isolated ATM kinase (Q13315 whole entry): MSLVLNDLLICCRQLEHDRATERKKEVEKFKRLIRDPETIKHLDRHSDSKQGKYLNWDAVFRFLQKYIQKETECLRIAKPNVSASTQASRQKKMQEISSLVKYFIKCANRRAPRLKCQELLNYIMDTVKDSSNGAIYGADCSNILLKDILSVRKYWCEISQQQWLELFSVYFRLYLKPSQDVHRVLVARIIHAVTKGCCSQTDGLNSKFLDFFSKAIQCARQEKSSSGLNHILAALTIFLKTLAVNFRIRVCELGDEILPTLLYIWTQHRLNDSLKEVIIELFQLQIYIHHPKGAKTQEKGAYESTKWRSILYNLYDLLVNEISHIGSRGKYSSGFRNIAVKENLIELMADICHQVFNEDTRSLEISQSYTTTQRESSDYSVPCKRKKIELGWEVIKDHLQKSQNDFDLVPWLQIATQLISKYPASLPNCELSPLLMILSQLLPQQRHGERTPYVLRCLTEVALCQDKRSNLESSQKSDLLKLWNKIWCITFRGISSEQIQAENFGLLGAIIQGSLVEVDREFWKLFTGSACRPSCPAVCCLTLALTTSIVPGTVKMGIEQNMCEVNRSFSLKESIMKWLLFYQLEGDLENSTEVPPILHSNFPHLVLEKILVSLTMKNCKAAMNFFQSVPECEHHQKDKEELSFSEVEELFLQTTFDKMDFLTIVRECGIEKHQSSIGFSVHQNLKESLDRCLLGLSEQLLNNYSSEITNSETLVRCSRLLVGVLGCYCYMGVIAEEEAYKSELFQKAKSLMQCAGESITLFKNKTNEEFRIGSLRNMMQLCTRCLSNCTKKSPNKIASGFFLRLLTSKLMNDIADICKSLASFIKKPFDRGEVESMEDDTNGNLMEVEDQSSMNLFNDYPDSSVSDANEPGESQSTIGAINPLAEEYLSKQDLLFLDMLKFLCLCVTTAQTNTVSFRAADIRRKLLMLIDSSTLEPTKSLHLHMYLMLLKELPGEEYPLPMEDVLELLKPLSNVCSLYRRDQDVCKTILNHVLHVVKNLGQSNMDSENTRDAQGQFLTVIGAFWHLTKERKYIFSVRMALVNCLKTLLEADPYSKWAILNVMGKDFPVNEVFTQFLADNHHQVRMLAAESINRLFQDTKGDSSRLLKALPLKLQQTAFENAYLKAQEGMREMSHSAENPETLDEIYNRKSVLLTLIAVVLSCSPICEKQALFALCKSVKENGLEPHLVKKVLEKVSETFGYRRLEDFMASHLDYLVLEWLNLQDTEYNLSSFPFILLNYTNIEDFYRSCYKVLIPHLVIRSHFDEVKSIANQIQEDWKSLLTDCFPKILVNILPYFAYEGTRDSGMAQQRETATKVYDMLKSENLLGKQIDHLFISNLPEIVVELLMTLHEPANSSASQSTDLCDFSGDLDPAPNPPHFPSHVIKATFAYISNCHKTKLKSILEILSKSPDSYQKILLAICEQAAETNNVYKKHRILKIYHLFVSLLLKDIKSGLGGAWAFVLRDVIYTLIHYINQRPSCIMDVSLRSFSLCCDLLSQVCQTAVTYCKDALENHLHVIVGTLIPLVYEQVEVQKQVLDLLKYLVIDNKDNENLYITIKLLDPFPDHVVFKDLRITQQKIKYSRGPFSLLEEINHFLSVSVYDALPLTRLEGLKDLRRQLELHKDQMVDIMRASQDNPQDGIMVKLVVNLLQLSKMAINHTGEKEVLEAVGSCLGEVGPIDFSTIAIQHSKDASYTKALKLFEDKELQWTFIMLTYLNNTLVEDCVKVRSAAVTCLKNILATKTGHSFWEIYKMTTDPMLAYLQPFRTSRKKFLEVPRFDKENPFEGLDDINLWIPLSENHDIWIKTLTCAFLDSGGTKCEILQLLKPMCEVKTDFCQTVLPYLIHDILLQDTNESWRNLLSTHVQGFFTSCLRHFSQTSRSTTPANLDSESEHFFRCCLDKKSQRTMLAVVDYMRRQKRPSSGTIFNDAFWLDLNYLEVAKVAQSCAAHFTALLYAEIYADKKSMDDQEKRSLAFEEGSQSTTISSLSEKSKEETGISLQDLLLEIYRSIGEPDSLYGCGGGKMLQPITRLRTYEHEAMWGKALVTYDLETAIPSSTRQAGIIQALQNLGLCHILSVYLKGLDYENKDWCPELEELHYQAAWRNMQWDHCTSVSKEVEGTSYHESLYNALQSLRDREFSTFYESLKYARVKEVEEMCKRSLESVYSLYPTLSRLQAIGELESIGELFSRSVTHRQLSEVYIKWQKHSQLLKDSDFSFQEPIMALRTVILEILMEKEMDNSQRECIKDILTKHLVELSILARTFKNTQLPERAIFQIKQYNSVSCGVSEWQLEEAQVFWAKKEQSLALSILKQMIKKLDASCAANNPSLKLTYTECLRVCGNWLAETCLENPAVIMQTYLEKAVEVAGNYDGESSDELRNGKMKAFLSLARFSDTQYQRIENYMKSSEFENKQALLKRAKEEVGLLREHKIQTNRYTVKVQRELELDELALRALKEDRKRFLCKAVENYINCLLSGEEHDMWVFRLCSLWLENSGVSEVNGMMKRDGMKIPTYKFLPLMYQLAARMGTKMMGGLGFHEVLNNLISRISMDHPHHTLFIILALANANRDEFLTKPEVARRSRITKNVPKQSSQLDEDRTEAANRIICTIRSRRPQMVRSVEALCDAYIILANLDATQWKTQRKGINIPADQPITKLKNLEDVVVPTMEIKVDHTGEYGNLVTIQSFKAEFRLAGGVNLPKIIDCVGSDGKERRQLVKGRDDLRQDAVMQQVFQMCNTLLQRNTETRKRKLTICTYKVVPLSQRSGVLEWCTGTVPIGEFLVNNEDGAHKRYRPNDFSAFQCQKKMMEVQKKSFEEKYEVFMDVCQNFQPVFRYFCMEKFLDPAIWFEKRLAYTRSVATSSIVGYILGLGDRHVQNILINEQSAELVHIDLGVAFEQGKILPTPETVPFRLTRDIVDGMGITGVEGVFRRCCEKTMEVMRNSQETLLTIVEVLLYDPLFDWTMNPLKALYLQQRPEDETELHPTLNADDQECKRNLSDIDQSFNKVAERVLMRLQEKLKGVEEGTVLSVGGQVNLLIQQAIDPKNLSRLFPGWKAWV

The first assay has as its target isolated ATM kinase (Homo sapiens (Human), UniProt Q13315). Kind of assay: FRET-based ATM activity assay at Reaction Biology Corp. (IC50^I). Format: biochemical. The settings on record: Table 13; read-out: IC50 [nM], IC50^I.
A word on the IC50: it is the concentration at which inhibition is half-maximal. For the compound `CN(C)CCSc1ccc(-c2ccc3ncn(-c4cccc(NS(C)(=O)=O)c4)c3c2)cc1` [TD-472, N-(3-(6-(4-((2-(dimethylamino)ethyl)thio)phenyl)-1H-benzo[d]imidazol-1-yl)phenyl)methanesulfonamide], the 50% inhibitory concentration (IC50) was 23 nM. With `COCC(=O)Nc1cccc(-n2cnc3ccc(-c4ccc(NC(=O)NCCN(C)C)cc4)cc32)c1` [TD-344, N-(3-(6-(4-(3-(2-(dimethylamino)ethyl)ureido)phenyl)-1H-benzo[d]imidazol-1-yl)phenyl)-2-methoxyacetamide], the IC50 amounted to 7 nM. For the compound `CN1CCN2C(=O)N(c3ccc(-c4ccc5ncn(-c6cccc(NS(C)(=O)=O)c6)c5c4)cc3)CC2C1` (centres unmarked) [TD-448, N-(3-(6-(4-(7-methyl-3-oxohexahydroimidazo[1,5-a]pyrazin-2(3H)-yl)phenyl)-1H-benzo[d]imidazol-1-yl)phenyl)methanesulfonamide], the IC50 stood at 343 nM. In the case of `CN(C)CCNC(=O)Nc1ccc(-c2ccc3ncn(-c4ccc5c(c4)CCCC5)c3c2)cc1` [TD-547, 1-(2-(dimethylamino)ethyl)-3-(4-(1-(5,6,7,8-tetrahydronaphthalen-2-yl)-1H-benzo[d]imidazol-6-yl)phenyl)urea], the IC50 was 16 nM.

For `COc1cc(-n2cnc3ccc(-c4ccc(NC(=O)NCCN(C)C)cc4)cc32)cc(OC)c1OC` [TD-309, 1-(2-(dimethylamino)ethyl)-3-(4-(1-(3,4,5-trimethoxyphenyl)-1H-benzo[d]imidazol-6-yl)phenyl)urea], the IC50 was 60 nM. Same read-out and setting: next, `COCC(=O)Nc1ccc(-n2cnc3ccc(-c4ccc(NC(=O)NCCN(C)C)cc4)cc32)cc1` [TD-339, N-(4-(6-(4-(3-(2-(dimethylamino)ethyl)ureido)phenyl)-1H-benzo[d]imidazol-1-yl)phenyl)-2-methoxyacetamide]: 10 nM.

A further assay deals with ATM (h) (Homo sapiens (Human), UniProt Q13315). The assay can be described thus: ATM assay at Eurofins KinaseProfiler with adjusted concentration range (IC50^II). Format: biochemical. The settings on record: Table 13; assay variant (I or II) not given; read-out: IC50.
Sequence of ATM (h) (Q13315 whole entry): as above
On to `COc1cc2ncn(-c3ccc4c(c3)N(S(C)(=O)=O)CC4)c2cc1-c1ccc(OCCCN(C)C)nc1` [TD-630, 3-((5-(5-methoxy-1-(1-(methylsulfonyl)indolin-6-yl)-1H-benzo[d]imidazol-6-yl)pyridin-2-yl)oxy)-N,N-dimethylpropan-1-amine], for which the IC50 was 386 nM.

The assay is the same for the next values; noted with them: Table 13; read-out: IC50 [nM], IC50^II.
As to `CS(=O)(=O)N1CCc2ccc(-n3cnc4ccc(-c5ccc(CO)cc5)cc43)cc21` [TD-587, (4-(1-(1-(methylsulfonyl)indolin-6-yl)-1H-benzo[d]imidazol-6-yl)phenyl)methanol], the IC50 came out at 106 nM.

In the case of `CN(C)CCCn1cc(-c2ccc3ncn(-c4ccc5c(c4)N(S(C)(=O)=O)CC5)c3n2)cn1` [TD-623, N,N-dimethyl-3-(4-(3-(1-(methylsulfonyl)indolin-6-yl)-3H-imidazo[4,5-b]pyridin-5-yl)-1H-pyrazol-1-yl)propan-1-amine], the IC50 came out at 237 nM. For the compound `COc1cc2ncn(-c3ccc4c(c3)N(S(C)(=O)=O)CC4)c2cc1-c1ccc(NC(=O)NCCN(C)C)cc1` [TD-634, 1-(2-(dimethylamino)ethyl)-3-(4-(5-methoxy-1-(1-(methylsulfonyl)indolin-6-yl)-1H-benzo[d]imidazol-6-yl)phenyl)urea], the IC50 is 113 nM.

Turning to `CN(C)CCc1nc2cc(-c3ccc4ncn(-c5ccc6c(c5)N(S(C)(=O)=O)CC6)c4c3)ccc2[nH]1` [TD-607, N,N-dimethyl-2-(3′-(1-(methylsulfonyl)indolin-6-yl)-1H,3′H-[5,5′-bibenzo[d]imidazol]-2-yl)ethan-1-amine], the IC50 was found to be 2 nM.
